Source: PubChem BioAssay (NCI)
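A five-concentration, 48-hour dose response in 96-well plates underlies each endpoint, interpolated linearly between surrounding concentrations. GI50 is the concentration that inhibits growth by half. TGI is the concentration that stops growth completely.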

What was measured:
Assay in all cases: inhibition of tumour cell growth, NCI panel, 48 h
NCI-H522 lung = system: NCI-H522 lung
SK-MEL-28 melanoma = system: SK-MEL-28 melanoma
RPMI-8226 leukemia = system: RPMI-8226 leukemia
OVCAR-4 ovarian = system: OVCAR-4 ovarian
MOLT-4 leukemia = system: MOLT-4 leukemia
HCT-15 colon = system: HCT-15 colon
MCF7 breast = system: MCF7 breast
HCT-116 colon = system: HCT-116 colon
KM12 colon = system: KM12 colon
LOX IMVI melanoma = system: LOX IMVI melanoma
MALME-3M melanoma = system: MALME-3M melanoma
COLO 205 colon = system: COLO 205 colon
SNB-19 CNS = system: SNB-19 CNS
NCI-H23 lung = system: NCI-H23 lung
TK-10 renal = system: TK-10 renal
MDA-MB-435 = system: MDA-MB-435
HL-60(TB) leukemia = system: HL-60(TB) leukemia
OVCAR-3 ovarian = system: OVCAR-3 ovarian
RXF 393 renal = system: RXF 393 renal
HCC-2998 colon = system: HCC-2998 colon
A498 renal = system: A498 renal
786-0 renal = system: 786-0 renal
IGROV1 ovarian = system: IGROV1 ovarian
NCI-H460 lung = system: NCI-H460 lung
SK-OV-3 ovarian = system: SK-OV-3 ovarian
U251 CNS = system: U251 CNS
OVCAR-8 ovarian = system: OVCAR-8 ovarian
SK-MEL-5 melanoma = system: SK-MEL-5 melanoma
SR leukemia = system: SR leukemia
NCI-H226 lung = system: NCI-H226 lung
HOP-62 NSCLC = system: HOP-62 NSCLC
OVCAR-5 ovarian = system: OVCAR-5 ovarian
SW-620 colon = system: SW-620 colon
HOP-92 NSCLC = system: HOP-92 NSCLC
SF-295 CNS = system: SF-295 CNS
NCI/ADR-RES ovarian = system: NCI/ADR-RES ovarian
BT-549 breast = system: BT-549 breast
SF-539 CNS = system: SF-539 CNS
DU-145 prostate = system: DU-145 prostate
EKVX NSCLC = system: EKVX NSCLC
CCRF-CEM leukemia = system: CCRF-CEM leukemia
SF-268 CNS = system: SF-268 CNS
MDA-MB-231 breast = system: MDA-MB-231 breast
M14 melanoma = system: M14 melanoma
SN12C renal = system: SN12C renal
MDA-MB-468 breast = system: MDA-MB-468 breast
UACC-62 melanoma = system: UACC-62 melanoma
T-47D breast = system: T-47D breast
UO-31 renal = system: UO-31 renal
ACHN renal = system: ACHN renal
HT29 colon = system: HT29 colon
K-562 leukemia = system: K-562 leukemia
UACC-257 melanoma = system: UACC-257 melanoma
SK-MEL-2 melanoma = system: SK-MEL-2 melanoma
HS 578T breast = system: HS 578T breast
A549 NSCLC = system: A549 NSCLC
CAKI-1 renal = system: CAKI-1 renal
SNB-75 CNS = system: SNB-75 CNS
PC-3 prostate = system: PC-3 prostate

SMILES: CCN1CCN(c2ccc(NC(=O)Nc3ccc(-c4cc(C(=O)NC(C)C)c5ncccc5n4)cc3)cc2C(F)(F)F)CC1
- GI50 (NCI-H522 lung): 3.52 µM
- TGI (NCI-H522 lung): 8.43 µM
- GI50 (SK-MEL-28 melanoma): 0.752 µM
- TGI (SK-MEL-28 melanoma): 1.85 µM
- GI50 (RPMI-8226 leukemia): 1.04 µM
- TGI (RPMI-8226 leukemia): 34.5 µM
- GI50 (OVCAR-4 ovarian): 0.88 µM
- TGI (OVCAR-4 ovarian): 2.45 µM
- GI50 (MOLT-4 leukemia): 1.11 µM
- TGI (MOLT-4 leukemia): 30.6 µM
- GI50 (HCT-15 colon): 0.667 µM
- TGI (HCT-15 colon): 1.35 µM
- GI50 (MCF7 breast): 0.631 µM
- TGI (MCF7 breast): 1.5 µM
- GI50 (HCT-116 colon): 0.638 µM
- TGI (HCT-116 colon): 1.3 µM
- GI50 (KM12 colon): 1.01 µM
- TGI (KM12 colon): 2.91 µM
- GI50 (LOX IMVI melanoma): 0.557 µM
- TGI (LOX IMVI melanoma): 1.05 µM
- GI50 (MALME-3M melanoma): 0.575 µM
- TGI (MALME-3M melanoma): 1.05 µM
- GI50 (COLO 205 colon): 0.931 µM
- TGI (COLO 205 colon): 2.71 µM
- GI50 (SNB-19 CNS): 4.24 µM
- TGI (SNB-19 CNS): 9.12 µM
- GI50 (NCI-H23 lung): 2.05 µM
- TGI (NCI-H23 lung): 7.27 µM
- GI50 (TK-10 renal): 1.35 µM
- TGI (TK-10 renal): 4.87 µM
- GI50 (MDA-MB-435): 0.65 µM
- TGI (MDA-MB-435): 1.31 µM
- GI50 (HL-60(TB) leukemia): 1.07 µM
- TGI (HL-60(TB) leukemia): 5.89 µM
- GI50 (OVCAR-3 ovarian): 0.636 µM
- TGI (OVCAR-3 ovarian): 1.36 µM
- GI50 (RXF 393 renal): 0.654 µM
- TGI (RXF 393 renal): 1.73 µM
- GI50 (HCC-2998 colon): 1.44 µM
- TGI (HCC-2998 colon): 5.09 µM
- GI50 (A498 renal): 5.11 µM
- TGI (A498 renal): 9.7 µM
- GI50 (786-0 renal): 0.497 µM
- TGI (786-0 renal): 1.03 µM
- GI50 (IGROV1 ovarian): 1.42 µM
- TGI (IGROV1 ovarian): 5.11 µM
- GI50 (NCI-H460 lung): 0.617 µM
- TGI (NCI-H460 lung): 1.18 µM
- GI50 (SK-OV-3 ovarian): 5.33 µM
- TGI (SK-OV-3 ovarian): 10.8 µM
- GI50 (U251 CNS): 1.24 µM
- TGI (U251 CNS): 4.82 µM
- GI50 (OVCAR-8 ovarian): 5.69 µM
- TGI (OVCAR-8 ovarian): 17.5 µM
- GI50 (SK-MEL-5 melanoma): 1.41 µM
- TGI (SK-MEL-5 melanoma): 5.28 µM
- GI50 (SR leukemia): 1.05 µM
- TGI (SR leukemia): 12.1 µM
- GI50 (NCI-H226 lung): 5.02 µM
- TGI (NCI-H226 lung): 12.5 µM
- GI50 (HOP-62 NSCLC): 3.83 µM
- TGI (HOP-62 NSCLC): 8.89 µM
- GI50 (OVCAR-5 ovarian): 1.6 µM
- TGI (OVCAR-5 ovarian): 6.09 µM
- GI50 (SW-620 colon): 0.637 µM
- TGI (SW-620 colon): 1.26 µM
- GI50 (HOP-92 NSCLC): 3.14 µM
- TGI (HOP-92 NSCLC): 8.29 µM
- GI50 (SF-295 CNS): 0.581 µM
- TGI (SF-295 CNS): 1.14 µM
- GI50 (NCI/ADR-RES ovarian): 3.66 µM
- TGI (NCI/ADR-RES ovarian): 10 µM
- GI50 (BT-549 breast): 4.83 µM
- TGI (BT-549 breast): 9.57 µM
- GI50 (SF-539 CNS): 0.534 µM
- TGI (SF-539 CNS): 1.02 µM
- GI50 (DU-145 prostate): 0.749 µM
- TGI (DU-145 prostate): 1.58 µM
- GI50 (EKVX NSCLC): 1.61 µM
- TGI (EKVX NSCLC): 5.82 µM
- GI50 (CCRF-CEM leukemia): 1.01 µM
- TGI (CCRF-CEM leukemia): 3.1 µM
- GI50 (SF-268 CNS): 3.56 µM
- TGI (SF-268 CNS): 10.9 µM
- GI50 (MDA-MB-231 breast): 0.61 µM
- TGI (MDA-MB-231 breast): 1.18 µM
- GI50 (M14 melanoma): 0.723 µM
- TGI (M14 melanoma): 1.9 µM
- GI50 (SN12C renal): 0.668 µM
- TGI (SN12C renal): 1.38 µM
- GI50 (MDA-MB-468 breast): 0.766 µM
- TGI (MDA-MB-468 breast): 1.85 µM
- GI50 (UACC-62 melanoma): 3.99 µM
- TGI (UACC-62 melanoma): 8.28 µM
- GI50 (T-47D breast): 1.93 µM
- TGI (T-47D breast): 8.74 µM
- GI50 (UO-31 renal): 2.18 µM
- TGI (UO-31 renal): 6.81 µM
- GI50 (ACHN renal): 1.02 µM
- TGI (ACHN renal): 3.47 µM
- GI50 (HT29 colon): 0.665 µM
- TGI (HT29 colon): 1.32 µM
- GI50 (K-562 leukemia): 1 µM
- TGI (K-562 leukemia): 34.5 µM
- GI50 (UACC-257 melanoma): 3.45 µM
- TGI (UACC-257 melanoma): 8.11 µM
- GI50 (SK-MEL-2 melanoma): 4.82 µM
- TGI (SK-MEL-2 melanoma): 9.89 µM
- GI50 (HS 578T breast): 0.88 µM
- TGI (HS 578T breast): 3.45 µM
- GI50 (A549 NSCLC): 1.14 µM
- TGI (A549 NSCLC): 5.77 µM
- GI50 (CAKI-1 renal): 0.804 µM
- TGI (CAKI-1 renal): 2.08 µM
- GI50 (SNB-75 CNS): 0.979 µM
- TGI (SNB-75 CNS): 5.14 µM
- GI50 (PC-3 prostate): 0.76 µM
- TGI (PC-3 prostate): 2.1 µM
